{"source": "patent US20240190904A1", "about": "“Heteroaryl compounds as inhibitors of RIP2 kinase, composition and application thereof” (Accro Bioscience (HK) Limited, priority 2021, published 2024)", "key": {"RIP2 kinase": {"biological_target": "RIP2 kinase (Homo sapiens (Human), UniProt O43353)", "sequence (O43353 whole entry)": "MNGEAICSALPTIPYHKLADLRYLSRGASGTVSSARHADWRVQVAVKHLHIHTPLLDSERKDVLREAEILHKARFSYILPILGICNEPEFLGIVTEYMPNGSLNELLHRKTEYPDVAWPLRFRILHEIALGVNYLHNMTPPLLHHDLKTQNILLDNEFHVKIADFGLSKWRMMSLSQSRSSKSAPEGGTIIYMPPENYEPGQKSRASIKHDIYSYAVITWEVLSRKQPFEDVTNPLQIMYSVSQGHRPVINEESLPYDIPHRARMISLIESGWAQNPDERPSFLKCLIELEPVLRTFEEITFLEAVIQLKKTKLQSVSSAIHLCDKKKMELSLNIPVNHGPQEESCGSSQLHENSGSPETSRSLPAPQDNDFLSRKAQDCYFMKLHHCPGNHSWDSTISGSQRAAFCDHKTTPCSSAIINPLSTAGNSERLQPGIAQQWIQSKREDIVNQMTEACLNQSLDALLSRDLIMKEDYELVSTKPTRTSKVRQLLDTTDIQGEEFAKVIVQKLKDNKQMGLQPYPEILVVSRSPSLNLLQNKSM", "experiment": "Binding affinity assay (Kd)", "experimental": "For most assays, kinase-tagged T7 phage strains were prepared in an E. coli host derived from the BL21 strain. E. coli were grown to log-phase and infected with T7 phage and incubated with shaking at 32° C. until lysis. The lysates were centrifuged and filtered to remove cell debris. The remaining kinases were produced in HEK-293 cells and subsequently tagged with DNA for qPCR detection. Streptavidin coated magnetic beads were treated with biotinylated small molecule ligands for 30 minutes at room temperature to generate affinity resins for kinase assays. The liganded beads were blocked with excess biotin and washed with blocking buffer (SeaBlock (Pierce), 1% BSA, 0.05% Tween 20, 1 mM DTT) to remove unbound ligand and to reduce non-specific binding. Binding reactions were assembled by combining kinases, liganded affinity beads, and test compounds in 1× binding buffer (20% SeaBlock, 0.17×PBS, 0.05% Tween 20, 6 mM DTT). Test compounds were prepared as 111× stocks in 100% DMSO. Kds were determined using an 11-point 3-fold compound dilution series with three DMSO control points. All compounds for Kd measurements are distributed by acoustic transfer (non-contact dispensing) in 100% DMSO. The compounds were then diluted directly into the assays such that the final concentration of DMSO was 0.9%. All reactions performed in polypropylene 384-well plate. Each was a final volume of 0.02 ml. The assay plates were incubated at room temperature with shaking for 1 hour and the affinity beads were washed with wash buffer (1×PBS, 0.05% Tween 20). The beads were then re-suspended in elution buffer (1×PBS, 0.05% Tween 20, 0.5 μM nonbiotinylated affinity ligand) and incubated at room temperature with shaking for 30 minutes. The kinase concentration in the eluates was measured by qPCR.\nAn 11-point 3-fold serial dilution of each test compound was prepared in 100% DMSO at 100× final test concentration and subsequently diluted to 1× in the assay (final DMSO concentration=1%). Most Kds were determined using a compound top concentration=30,000 nM. If the initial Kd determined was <0.5 nM (the lowest concentration tested), the measurement was repeated with a serial dilution starting at a lower top concentration.\nBinding constants (Kds) were calculated with a standard dose-response curve using the Hill equation: […]\nThe Hill Slope was set to −1.\nCurves were fitted using a non-linear least square fit with the Levenberg-Marquardt algorithm."}, "[1]": {"experiment": "Thermodynamic solubility test", "format": "physicochemical", "details": "thermodynamic from solid; FaSSIF pH 6.5, thermodynamic", "experimental": "• a. Add assay buffer into compound powder to make 4 mg/mL solution. • b. Sample tubes are shaken for 1 hour (1000 rpm), then equilibrated over night at room temperature. • c. Samples are centrifuged (10 min-12000 rpm) to precipitate un-dissolved particles. • d. Supernatants are transferred to new tubes. • e. Concentrations of the supernatants after centrifugation are determined by LCMSMS detection."}, "Caco-2 permeability test": {"experiment": "Caco-2 permeability test", "format": "in vitro ADME", "details": "human, Caco-2, pH 7.4", "experimental": "(§1) • 1. Prewarm HBSS Buffer in 37° C. water bath • 2. Take compounds from −20° C., sonicate for a few minutes (no less than 1 minute) • 3. Solution preparation\n(§2) For A-to-B direction: • HBSS buffer with 0.3% DMSO and 5 μM LY: add 150 μL DMSO and 50 μL LY (5 mM) into 50 ml HBSS buffer (pH7.4). • HBSS buffer with 0.1% DMSO and 5 μM LY: add 50 μL DMSO and 50 μL LY (5 mM) into 50 mL HBSS buffer (pH7.4).\n(§3) For B-to-A direction: • HBSS buffer with 0.3% DMSO: add 150 μL DMSO into 50 ml HBSS buffer (pH7.4) • HBSS buffer with 0.1% DMSO: add 50 μL DMSO into 50 ml HBSS buffer (pH7.4).\n(§4) Receiver Solution Buffer:\n(§5) Prepare HBSS buffer with 0.4% DMSO: add 200 μL DMSO into 50 ml HBSS buffer (pH7.4).\n(§6) For B-to-A direction: • Prepare HBSS buffer with 0.4% DMSO and 5 uM LY: add 200 μL DMSO and 50 μL LY (5 mM) into 50 ml HBSS buffer (pH7.4).\n(§7) Take cell culture plate out of incubator, wash the cell monolayers with HBSS buffer, and then measure TEER values at Rm temperature. • 5. Centrifuge the compound solution (from step 3) at 4000 rpm for 5 min before loading to donor chambers. • 6. Add solution based on the volumes listed in the following table (make sure to take extra 100 uL of donor sample for T0 as Backup).\n(§8) • 7. To determine LY concentration in the apical chamber, take 100 μL sample from apical chambers into an opaque plate for LYT0. • 8. Prewarm apical and basolateral plates at 37° C. for about 5 min, then begin transport by placing the apical plate onto basolateral plate. • 9. Keep the plates in incubator at 37° C. for 90 min • 10. Prepare 20× solution\n(§9) • 11. Separate the apical plate from the basolateral plate after 90-min incubation. • 12. Take 100 μL samples from basolateral plate to an opaque plate as LYT90. • 13. Measure LY concentrations for LYT0 and LYT90 by Fluorometer (at excitation of 485 nm/emission of 535 nm). • 14. Sample preparation for LC-MS/MS: Donor or receiver samples are diluted by 0.4% DMSO HBSS, then mix with ACN with IS (Osalmid or Imipramine)"}, "Caco-2": {"system": "Caco-2", "experiment": "Caco-2 permeability test", "format": "in vitro ADME", "details": "Caco-2", "experimental": "as §1, §2, §3, §4, §5, §6, §7, §8, §9"}, "[2]": {"experiment": "Metabolic stability test, HLM", "format": "in vitro ADME", "details": "human, liver microsomes", "experimental": "(§10) • 1. Buffers: • Buffer A: 1.0 L of 0.1 M monobasic Potassium Phosphate buffer containing 1.0 mM EDTA • Buffer B: 1.0 L of 0.1 M Dibasic Potassium Phosphate buffer containing 1.0 mM EDTA • Buffer C: 0.1 M Potassium Phosphate buffer, 1.0 mM EDTA, pH 7.4 by titrating 700 mL of buffer B with buffer A while monitoring with the pH meter. • 2. Reference compounds (Ketanserin) and test compounds spiking solution: • 500 μM spiking solution: add 10 μL of 10 mM DMSO stock solution into 190 μL ACN. • 1.5 μM spiking solution in microsomes (0.75 mg/mL): add 1.5 μL of 500 μM spiking solution and 18.75 μL of 20 mg/mL liver microsomes into 479.75 μL of Buffer C on ice. • 3. Prepare NADPH stock solution (6 mM) by dissolving NADPH into buffer C. • 4. Dispense 30 μL of 1.5 μM spiking solution containing 0.75 mg/mL microsomes solution to the assay plates designated for different time points (0-, 5-, 15-, 30-, 45-min) on ice. • 5. For 0-min time point, add 135 μL of ACN containing IS to the wells of 0-min plate and then add 15 μL of NADPH stock solution (6 mM). • 6. Pre-incubate all other plates at 37° C. for 5 minutes. • 7. Add 15 μL of NADPH stock solution (6 mM) to the plates to start the reaction and timing. • 8. At 5-min, 15-min, 30-min, and 45-min, add 135 μL of ACN containing IS to the wells of corresponding plates, respectively, to stop the reaction. • 9. After quenching, shake the plates at the vibrator (IKA, MTS 2/4) for 10 min (600 rpm/min) and then centrifuge at 5594 g for 15 min (ThermoMultifuge×3R). • 10. Transfer 50 μL of the supernatant from each well into a 96-well sample plate containing 50 μL of ultra pure water (Millipore, ZMQS50F01) for LC/MS analysis."}, "[3]": {"experiment": "Metabolic stability test, RLM", "format": "in vitro ADME", "details": "rat, liver microsomes", "experimental": "as §10"}, "[4]": {"experiment": "Metabolic stability test, DLM", "format": "in vitro ADME", "details": "dog, liver microsomes", "experimental": "as §10"}}, "data": [{"compound": "CP(C)(=O)c1cc2c(Nc3ccc4scnc4c3)ccnc2cc1-c1cnn(C2CCNCC2)c1", "note": "[A13]", "values": [{"measurement": "Kd", "setting": "RIP2 kinase", "result": 1.4, "unit": "nM"}, {"measurement": "solubility", "setting": "[1]", "result": 4.33, "unit": "mM"}, {"measurement": "Papp A→B at 90 min", "setting": "Caco-2 permeability test; A-B", "result": "< 0.14", "unit": "×10⁻⁶ cm/s"}, {"measurement": "Papp B→A at 90 min", "setting": "Caco-2 permeability test; B-A", "result": 0.27, "unit": "×10⁻⁶ cm/s"}, {"measurement": "efflux ratio at 90 min", "setting": "Caco-2 permeability test; efflux ratio, read-out: Caco-2 Permeability B-A/A-B", "result": "> 1.93"}, {"measurement": "permeability (in words)", "setting": "Caco-2", "result": "low"}, {"measurement": "CLint scaled at 1 μM", "setting": "[2]; pH 7.4, read-out: Cl (mL/min/kg) HLM", "result": 0.69, "unit": "mL/min/kg"}, {"measurement": "half-life at 1 μM", "setting": "[2]; pH 7.4, read-out: T1/2 (min) HLM", "result": 2520, "unit": "min"}, {"measurement": "CLint scaled at 1 μM", "setting": "[3]; pH 7.4, read-out: Cl (mL/min/kg) RLM", "result": 31.6, "unit": "mL/min/kg"}, {"measurement": "half-life at 1 μM", "setting": "[3]; pH 7.4, read-out: T1/2 (min) RLM", "result": 78.7, "unit": "min"}, {"measurement": "CLint scaled at 1 μM", "setting": "[4]; pH 7.4, read-out: Cl (mL/min/kg) DLM", "result": 17.4, "unit": "mL/min/kg"}, {"measurement": "half-life at 1 μM", "setting": "[4]; pH 7.4, read-out: T1/2 (min) DLM", "result": 198, "unit": "min"}]}]}
